Experimental data taken from article PMC3278463, “Quercetin-4′-O-β-D-glucopyranoside (QODG) Inhibits Angiogenesis by Suppressing VEGFR2-Mediated Signaling in Zebrafish and Endothelial Cells” (PLoS ONE, 2012).

Target: VEGFR2 (KDR/Flk-1) (Homo sapiens, UniProt P35968)
Experiment: ELISA-based in vitro VEGFR2 tyrosine kinase assay (HTScan VEGFR2 kinase assay kit)
Type: biochemical

Chain of VEGFR2 (KDR/Flk-1) (P35968 20-1356): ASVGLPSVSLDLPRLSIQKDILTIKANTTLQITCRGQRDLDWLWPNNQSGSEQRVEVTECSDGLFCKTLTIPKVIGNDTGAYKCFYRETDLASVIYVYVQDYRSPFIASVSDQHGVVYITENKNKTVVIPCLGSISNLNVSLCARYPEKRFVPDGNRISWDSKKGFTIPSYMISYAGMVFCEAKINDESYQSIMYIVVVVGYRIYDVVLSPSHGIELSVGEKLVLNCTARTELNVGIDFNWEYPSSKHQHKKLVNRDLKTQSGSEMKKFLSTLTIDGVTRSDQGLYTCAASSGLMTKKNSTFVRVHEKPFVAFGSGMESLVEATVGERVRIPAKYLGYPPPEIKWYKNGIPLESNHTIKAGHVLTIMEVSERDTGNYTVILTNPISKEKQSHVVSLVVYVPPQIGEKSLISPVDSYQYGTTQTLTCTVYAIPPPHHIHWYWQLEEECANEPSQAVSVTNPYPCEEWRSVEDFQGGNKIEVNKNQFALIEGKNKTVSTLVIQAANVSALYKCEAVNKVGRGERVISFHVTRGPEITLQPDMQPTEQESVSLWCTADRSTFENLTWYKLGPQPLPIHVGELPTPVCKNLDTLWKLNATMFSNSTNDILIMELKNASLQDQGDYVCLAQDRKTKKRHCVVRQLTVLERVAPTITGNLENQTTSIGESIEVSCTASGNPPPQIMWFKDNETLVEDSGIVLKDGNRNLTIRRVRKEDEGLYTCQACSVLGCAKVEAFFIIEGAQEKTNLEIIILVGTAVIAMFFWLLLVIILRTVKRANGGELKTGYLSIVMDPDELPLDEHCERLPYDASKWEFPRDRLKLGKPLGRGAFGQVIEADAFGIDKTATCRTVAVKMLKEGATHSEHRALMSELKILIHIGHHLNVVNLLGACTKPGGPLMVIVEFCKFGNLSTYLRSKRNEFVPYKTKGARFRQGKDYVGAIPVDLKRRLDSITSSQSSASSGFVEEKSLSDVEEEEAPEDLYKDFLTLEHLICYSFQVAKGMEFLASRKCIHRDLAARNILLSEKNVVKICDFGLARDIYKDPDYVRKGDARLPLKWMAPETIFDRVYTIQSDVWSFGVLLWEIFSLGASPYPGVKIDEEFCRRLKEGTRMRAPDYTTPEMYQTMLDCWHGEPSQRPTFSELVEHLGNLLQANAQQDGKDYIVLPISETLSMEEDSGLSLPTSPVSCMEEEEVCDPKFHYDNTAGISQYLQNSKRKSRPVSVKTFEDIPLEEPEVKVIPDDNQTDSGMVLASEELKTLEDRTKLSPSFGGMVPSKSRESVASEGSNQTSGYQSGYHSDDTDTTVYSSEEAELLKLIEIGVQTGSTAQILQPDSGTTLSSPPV

- IC50: 20.1 nM
Compound: O=c1c(O)c(-c2ccc(O[C@@H]3O[C@H](CO)[C@@H](O)[C@H](O)[C@H]3O)c(O)c2)oc2cc(O)cc(O)c12 [QODG, Quercetin-4′-O-β-D-glucopyranoside]
